The target in assay [1] is T1, recombinant human 17β-HSD1 (Homo sapiens, UniProt P14061).
T1 construct: made in house; host or cells: Sd9 (Sf9) insect cells, baculovirus (Bac to Bac Expression System)
T1 sequence (P14061 1-328): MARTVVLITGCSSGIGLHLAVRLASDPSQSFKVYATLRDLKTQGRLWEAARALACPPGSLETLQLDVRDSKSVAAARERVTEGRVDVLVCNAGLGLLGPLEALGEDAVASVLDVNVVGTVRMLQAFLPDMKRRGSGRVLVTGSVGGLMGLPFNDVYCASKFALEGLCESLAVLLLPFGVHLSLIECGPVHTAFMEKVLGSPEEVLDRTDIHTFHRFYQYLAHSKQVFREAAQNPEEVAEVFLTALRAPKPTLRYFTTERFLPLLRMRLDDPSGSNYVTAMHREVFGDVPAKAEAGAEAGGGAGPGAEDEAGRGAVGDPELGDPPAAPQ
Put plainly: Inhibition of recombinant human 17β-HSD1 (conversion of 3H-estrone to estradiol, HPLC). The settings on record: inhibitor 1 μM; 30 nM estrone, 1 mM NADPH, 30 min RT; read-out: 17β-HDS1 Inhibition % at 1 μM. The assay is classed as biochemical. Here is the method: 17β-HSD1 production and isolation: Recombinant baculovirus was generated by the “Bac to Bac Expression System” (Invitrogen). Recombinant bacmid was transfected to Sd9 insect cells using “Cellfectin Reagent” (Invitrogen). 60 h later cells were harvested; the microsomal fraction was isolated as described by Puranen, T. J., Poutanen, M. H., Peltoketo, H. E., Vihko, P. T. and Vihko, R. K. (1994) Site-directed mutagenesis of the putative active site of human 17 β-hydroxysteroid dehydrogenase type 1. Biochem. J. 304: 289-293. Aliquots were stored frozen until determination of enzymatic activity.
Assay—Inhibition of recombinant human 17β-HSD1: Protein homogenate (0.1 μg/ml) was incubated in 20 mM KH2PO4 pH 7.4 with 30 nM estrone (including 800 000 cpm/ml of ^3H-estrone) and 1 mM NADPH for 30 min at RT, in the presence of the potential inhibitor at concentrations 1 μM or 0.1 μM. Inhibitor stock solutions were prepared in DMSO. Final concentration of DMSO was adjusted to 1% in all samples. The enzyme reaction was stopped by addition of 10% trichloroacetic acid (final concentration). Samples were centrifuged in a microtiter plate at 4000 rpm for 10 min. Supernatants were applied to reverse phase HPLC on a Waters Symmetry C18 column, equipped with a Waters Sentry Guard column. Isocratic HPLC runs were performed at RT at a flow rate of 1 ml/min in acetonitrile:water 48:52 as running solvent. Radioactivity was monitored in the eluate by a Packard Flow Scintillation Analyzer. Total radioactivity for estrone and estradiol were determined in each sample and percent conversion of estrone to estradiol was calculated according to the following formula:
(§1) Percent inhibition was calculated flowingly: % inhibition=100−% conversion

Assay [2] deals with T2, recombinant human 17β-HSD2 (Homo sapiens, UniProt P37059).
T2 construct: made in house; host or cells: Sd9 (Sf9) insect cells, baculovirus (Bac to Bac Expression System)
T2 sequence (P37059 1-387): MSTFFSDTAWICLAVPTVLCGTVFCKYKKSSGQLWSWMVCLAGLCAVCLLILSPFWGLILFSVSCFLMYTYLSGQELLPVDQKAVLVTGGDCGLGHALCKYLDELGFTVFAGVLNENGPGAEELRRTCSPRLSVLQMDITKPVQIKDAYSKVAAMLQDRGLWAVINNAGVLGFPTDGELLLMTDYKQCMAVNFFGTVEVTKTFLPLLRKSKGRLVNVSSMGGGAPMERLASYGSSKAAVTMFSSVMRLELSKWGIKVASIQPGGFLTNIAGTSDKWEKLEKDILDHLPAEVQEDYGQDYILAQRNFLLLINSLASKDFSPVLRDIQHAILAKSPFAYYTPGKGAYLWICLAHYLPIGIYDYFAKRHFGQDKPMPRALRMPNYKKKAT
Put plainly: Inhibition of recombinant human 17β-HSD2 (conversion of 3H-estradiol to estrone, HPLC). The assay is classed as biochemical. Particulars: inhibitor 1 μM; 50 nM estradiol, 1 mM NADH, 30 min RT. Here is the method: 17β-HSD2 production and isolation: Similarly to 17β-HSD1 the Recombinant baculovirus was generated by the “Bac to Bac Expression System” (Invitrogen). Recombinant bacmid was transfected to Sd9 insect cells using “Cellfectin Reagent” (Invitrogen). 60 h later cells were harvested and supernatant were fractionated by the following protocol: • cells were dissolved into 40 ml of A-buffer (40 mM TRIS, pH8.0, 20% glycerol, 20 μM NAD, 0.4 mM PMSF, 150 mM NaCl, 0.5% dodecyl-β-maltoside+protease inhibitor cocktail) • cells were sonicated • lysate was incubated on ice for 15 min • lysate was centrifuged 5000 rpm 15 min, +4° C. • centrifugation of the supernatant 180 000 g 30 min, +4° C. • pellet was dissolved into 8 ml of A-buffer • not resuspended material was removed by centrifugation 5000 rpm 15 min, +4° C. • the clear supernatant was divided into 100 μl aliquots and were stored frozen until determination of enzymatic activity.
The amount of 17β-HSD2 was analysed by immunoblotting and total protein concentration of each extract batch was determined.
Assay—Inhibition of recombinant human 17β-HSD2: Protein homogenate (4 μg/ml) was incubated in 20 mM KH2PO4 pH 8.5 with 50 nM estradiol (including 800 000 cpm/ml of ^3H-estradiol) and 1 mM […] for 30 min at RT, in the presence of the potential inhibitor at concentrations 1 μM or 0.1 μM. Inhibitor stock solutions were prepared in DMSO. Final concentration of DMSO was adjusted to 1% in all samples. The enzyme reaction was stopped by addition of 10% trichloroacetic acid (final concentration). Samples were centrifuged in a microtiter plate at 4000 rpm for 10 min. Supernatants were applied to reverse phase HPLC on a Waters Symmetry C18 column, equipped with a Waters Sentry Guard column. Isocratic HPLC runs were performed at RT at a flow rate ofl ml/min in acetonitrile:water 48:52 as running solvent. Radioactivity was monitored in the eluate by a Packard Flow Scintillation Analyzer. Total radioactivity for estrone and estradiol were determined in each sample and percent conversion of estradiol to estrone was calculated according to the following formula:
as §1

Our source for the inhibition values is patent publication US10413557B2, “Prodrugs of 17.BETA.-HSD1-inhibitors” (FORENDO PHARMA LTD, priority 2014, dated 2019).

In the case of `CO/N=C1\C[C@@H](CCC(=O)Nc2ncc(C)s2)C2C3CCc4cc(O)c([N+](=O)[O-])cc4C3CC[C@]12C` (stereo partly drawn) [VIV-2, 3-{(13S,15R)-3-Hydroxy-17-[(E)-methoxyimino]-13-methyl-2-nitro-7,8,9,11,12,13,14,15,16,17-decahydro-6H-cyclopenta[a]phenanthren-15-yl}-N-(5-methylthiazol-2-yl)propanamide], the results for the inhibition at 1 µM in assay [1] and in assay [2] were 64% and 3%, respectively.
As to `CO/N=C1\C[C@@H](CCC(=O)Nc2ncc(C)s2)C2C3CCc4c(ccc(O)c4[N+](=O)[O-])C3CC[C@]12C` (stereo partly drawn) [VIV-4, 3-{(13S,15R)-3-Hydroxy-17-[(E)-methoxyimino]-13-methyl-4-nitro-7,8,9,11,12,13,14,15,16,17-decahydro-6H-cyclopenta[a]phenanthren-15-yl}-N-(5-methylthiazol-2-yl)propanamide], the inhibition (in general, the relative decrease from the control value, in per cent) at 1 µM in assay [1] was determined as 90%; in assay [2], 16%.
The matching figures for `CO/N=C1\C[C@@H](CCC(=O)Nc2ncc(C)s2)C2C3CCc4cc(O)c(I)cc4C3CC[C@]12C` (stereo partly drawn) [VIV-6, 3-{(13S,15R)-3-Hydroxy-2-iodo-17-[(E)-methoxyimino]-13-methyl-7,8,9,11,12,13,14,15,16,17-decahydro-6H-cyclopenta[a]phenanthren-15-yl}-N-(5-methylthiazol-2-yl)propanamide]: 90% and 0%.
The matching figures for `CO/N=C1\C[C@@H](CCC(=O)Nc2ncc(C)s2)C2C3CCc4c(ccc(O)c4I)C3CC[C@]12C` (stereo partly drawn) [VIV-7, 3-{(13S,15R)-3-Hydroxy-4-iodo-17-[(E)-methoxyimino]-13-methyl-7,8,9,11,12,13,14,15,16,17-decahydro-6H-cyclopenta[a]phenanthren-15-yl}-N-(5-methylthiazol-2-yl)propanamide]: 81% and 0%.
Take `CO/N=C1\C[C@@H](CCC(=O)Nc2ncc(C)s2)C2C3CCc4c(cc(I)c(O)c4I)C3CC[C@]12C` (stereo partly drawn) [VIV-8, 3-{(13S,15R)-3-Hydroxy-2,4-diiodo-17-[(E)-methoxyimino]-13-methyl-7,8,9,11,12,13,14,15,16,17-decahydro-6H-cyclopenta[a]phenanthren-15-yl}-N-(5-methylthiazol-2-yl)propanamide]: the inhibition at 1 µM was found to be 61% in assay [1] and 2% in assay [2].
For `CO/N=C1\C[C@@H](CCC(=O)Nc2ncc(C)s2)C2C3CCc4c(ccc(O)c4Br)C3CC[C@]12C` (stereo partly drawn) [VIV-10, 3-{(13S,15R)-4-Bromo-3-hydroxy-17-[(E)-methoxyimino]-13-methyl-7,8,9,11,12,13,14,15,16,17-decahydro-6H-cyclopenta[a]phenanthren-15-yl}-N-(5-methylthiazol-2-yl)propanamide], the inhibition at 1 µM in assay [1] worked out at 78%; in assay [2], 6%.
In the same order, the values of `CO/N=C1\C[C@@H](CCC(=O)Nc2ncc(C)s2)C2C3CCc4c(cc(Br)c(O)c4Br)C3CC[C@]12C` (stereo partly drawn) [VIV-11, 3-{(13S,15R)-2,4-Dibromo-3-hydroxy-17-[(E)-methoxyimino]-13-methyl-7,8,9,11,12,13,14,15,16,17-decahydro-6H-cyclopenta[a]phenanthren-15-yl}-N-(5-methylthiazol-2-yl)propanamide] are 78% and 3%.
In the case of `CO/N=C1\C[C@@H](CCC(=O)Nc2ncc(C)s2)C2C3CCc4c(ccc(O)c4Cl)C3CC[C@]12C` (stereo partly drawn) [VIV-13, 3-{(13S,15R)-4-Chloro-3-hydroxy-17-[(E)-methoxyimino]-13-methyl-7,8,9,11,12,13,14,15,16,17-decahydro-6H-cyclopenta[a]phenanthren-15-yl}-N-(5-methylthiazol-2-yl)propanamide], the inhibition at 1 µM in assay [1] was 86%; in assay [2] it was 5%.
As for `CO/N=C1\C[C@@H](CCC(=O)Nc2ncc(C)s2)C2C3CCc4c(cc(Br)c(O)c4F)C3CC[C@]12C` (stereo partly drawn) [VIV-17, 3-{(13S,15R)-2-Bromo-4-fluoro-3-hydroxy-17-[(E)-methoxyimino]-13-methyl-7,8,9,11,12,13,14,15,16,17-decahydro-6H-cyclopenta[a]phenanthren-15-yl}-N-(5-methylthiazol-2-yl)propanamide], the figures for the inhibition at 1 µM in assay [1] and in assay [2] were 83% and 2%, respectively.
In the case of `CO/N=C1\C[C@@H](CCC(=O)Nc2ncc(C)s2)C2C3CCc4c(cc(F)c(O)c4Br)C3CC[C@]12C` (stereo partly drawn) [VIV-18, 3-{(13S,15R)-4-Bromo-2-fluoro-3-hydroxy-17-[(E)-methoxyimino]-13-methyl-7,8,9,11,12,13,14,15,16,17-decahydro-6H-cyclopenta[a]phenanthren-15-yl}-N-(5-methylthiazol-2-yl)propanamide], the inhibition at 1 µM in assay [1] was 55%; in assay [2], 1%.
In the same order, the values of `CO/N=C1\C[C@@H](CCC(=O)Nc2ncc(C)s2)C2C3CCc4cc(O)c(C#N)cc4C3CC[C@]12C` (stereo partly drawn) [VIV-19, 3-{(13S,15R)-3-hydroxy-17-[(E)-methoxyimino]-13-methyl-2-nitrile-7,8,9,11,12,13,14,15,16,17-decahydro-6H-cyclopenta[a]phenanthren-15-yl}-N-(5-methylthiazol-2-yl)propanamide] are 93% and 2%.
Regarding `CO/N=C1\C[C@@H](CCC(=O)Nc2ncc(C)s2)C2C3CCc4c(ccc(O)c4C#N)C3CC[C@]12C` (stereo partly drawn) [VIV-20, 3-{(13S,15R)-3-hydroxy-17-[(E)-methoxyimino]-13-methyl-4-nitrile-7,8,9,11,12,13,14,15,16,17-decahydro-6H-cyclopenta[a]phenanthren-15-yl}-N-(5-methylthiazol-2-yl)propanamide], the inhibition at 1 µM came to 73% in assay [1] and 0% in assay [2].
With `Cc1cnc(NC(=O)CC[C@@H]2C/C(=N\O)[C@@]3(C)CCC4c5ccc(O)cc5CCC4C23)s1` (stereo partly drawn) [VIV-22, 3-{(13S,15R)-3-Hydroxy-17-[(E)-hydroxyimino]-13-methyl-7,8,9,11,12,13,14,15,16,17-decahydro-6H-cyclopenta[a]phenanthren-15-yl}-N-(5-methylthiazol-2-yl)propanamide], the results for the inhibition at 1 µM in assay [1] and in assay [2] were 81% and 4%, respectively.
